Laboratory results as given in patent US10098881B2, “Compounds” (AUTIFONY THERAPEUTICS LIMITED, priority 2011, dated 2018).

Tests used:
Male CD-1 mice = test: Biological Example 2: psychostimulant (amphetamine)-induced hyperactivity in mice; settings: for Locomotor activity (beam crosses): over 60 minutes, mean ± sem
[1] = target: T1, human Kv3.2 channels (hKv3.2) (Homo sapiens, UniProt Q96PR1); test: Biological Example 1: hKv3.2 whole-cell currents, IonWorks Quattro planar array electrophysiology; format: cell-based; settings: hKv3.2, -15 mV voltage step
T1 construct: expressed in transfected cells
T1 sequence (Q96PR1 1-638): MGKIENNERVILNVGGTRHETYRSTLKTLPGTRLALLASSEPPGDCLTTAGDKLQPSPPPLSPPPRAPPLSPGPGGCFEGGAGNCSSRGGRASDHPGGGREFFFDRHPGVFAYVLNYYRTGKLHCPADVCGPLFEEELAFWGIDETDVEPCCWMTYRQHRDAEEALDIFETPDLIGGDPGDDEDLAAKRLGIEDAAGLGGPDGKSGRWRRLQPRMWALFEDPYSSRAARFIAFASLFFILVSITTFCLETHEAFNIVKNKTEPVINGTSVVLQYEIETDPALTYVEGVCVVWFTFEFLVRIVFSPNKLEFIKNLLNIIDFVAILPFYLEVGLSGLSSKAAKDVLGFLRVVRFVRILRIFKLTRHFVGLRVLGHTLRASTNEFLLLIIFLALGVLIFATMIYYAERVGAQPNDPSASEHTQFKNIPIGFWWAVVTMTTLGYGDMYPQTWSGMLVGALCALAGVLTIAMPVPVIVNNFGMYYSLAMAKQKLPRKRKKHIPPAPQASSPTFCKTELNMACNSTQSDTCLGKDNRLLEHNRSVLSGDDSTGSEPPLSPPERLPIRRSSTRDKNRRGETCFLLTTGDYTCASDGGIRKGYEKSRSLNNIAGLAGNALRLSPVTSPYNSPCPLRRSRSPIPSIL
From the text: The ability of the compounds of the invention to modulate the voltage-gated potassium channel subtypes Kv3.2 or Kv3.1 may be determined using the following assay. Analogous methods may be used to investigate the ability of the compounds of the invention to modulate other channel subtypes, including Kv3.3 and Kv3.4.
To assess compound effects on human Kv3.2 channels (hKv3.2), a stable cell line expressing hKv3.2 was created by transfecting Chinese Hamster Ovary (CHO)-K1 cells with a pClH5-hKv3.2 vector. Cells were cultured in DMEM/F12 medium supplemented by 10% Foetal Bovine Serum, lx non-essential amino acids (Invitrogen) and 500 ug/ml of Hygromycin-B (Invitrogen). Cells were grown and maintained at 37° C. in a humidified environment containing 5% CO2 in air.
The day of the experiment, cells were removed from the incubator and the culture medium removed. Cells were washed with 5 ml of Dulbecco's PBS (DPBS) calcium and magnesium free and detached by the addition of 3 ml Versene (Invitrogen, Italy) followed by a brief incubation at 37° C. for 5 minutes. The flask was tapped to dislodge cells and 10 ml of DPBS containing calcium and magnesium was added to prepare a cell suspension. The cell suspension was then placed into a 15 ml centrifuge tube and centrifuged for 2 min at 1200 rpm. After centrifugation, the supernatant was removed and the cell pellet re-suspended in 4 ml of DPBS containing calcium and magnesium using a 5 ml pipette to break up the pellet. Cell suspension volume was then corrected to give a cell concentration for the assay of approximately 3 million cells per ml.
Experiments were conducted at room temperature using IonWorks Quattro™ planar array electrophysiology technology (Molecular Devices Corp.) with PatchPlate™ PPC. Stimulation protocols and data acquisition were carried out using a microcomputer (Dell Pentium 4). Planar electrode hole resistances (Rp) were determined by applying a 10 mV voltage step across each well. These measurements were performed before cell addition. […] Following this, amphotericin-B solution was added to the intracellular face of the electrode to achieve intracellular access. Cells were held at −70 mV. Leak subtraction was conducted in all experiments by applying 50 ms hyperpolarizing (10 mV) prepulses to evoke leak currents followed by a 20 ms period at the holding potential before test pulses. From the holding potential of −70 mV, a first test pulse to −15 mV was applied for 100 ms and following a further 100 ms at −70 mV, a second pulse to 40 mV was applied for 50 ms. Cells were then maintained for a further 100 ms at −100 mV and then a voltage ramp from −100 mV to 40 mV was applied over 200 ms. Test pulses protocol may be performed in the absence (pre-read) and presence (post-read) of the test compound. Pre- and post-reads may be separated by the compound addition followed by a 3 minute incubation.
The intracellular solution contained the following (in mM): K-gluconate 100, KCl 54, MgCl2 3.2, HEPES 5, adjusted to pH 7.3 with KOH. Amphotericin-B solution was prepared as […] stock solution in DMSO and diluted to a final working concentration of 0.1 mg/ml in intracellular solution.
Compounds of the invention (or reference compounds such as N-cyclohexyl-N-[(7,8-dimethyl-2-oxo-1,2-dihydro-3-quinolinyl)methyl]-N′-phenylurea were dissolved in dimethylsulfoxide (DMSO) at a stock concentration of 10 mM. These solutions were further diluted with DMSO using a Biomek FX
Each dilution (1 μL) was transferred to another compound plate and external solution containing 0.05% pluronic acid (66 μL) was added. 3.5 μL from each plate containing a compound of the invention was added and incubated with the cells during the lonWorks Quattro™ experiment. The final assay dilution was 200 and the final compound concentrations were in the range 50 μM to 50 nM.

[2] = compound 1.6 μM (concentration giving ~0.3 nA current at end of pulse)
[3] = compound 3.1 μM (concentration giving ~0.3 nA current at end of pulse)
[4] = compound 0.4 μM (concentration giving ~0.3 nA current at end of pulse)
[5] = compound 0.8 μM (concentration giving ~0.3 nA current at end of pulse)

For CC(N)Cc1ccccc1 (stereo not shown) [Amphetamine, amphetamine, reference compound], the “Locomotor activity (beam crosses)” value (Male CD-1 mice; amphetamine 2.0 mg/kg i.p. alone) was 16190 ± 2394 beam crosses and the total locomotor activity (Male CD-1 mice; amphetamine alone, 2 mg/kg i.p.) was “large and significant increase”.

Cc1ccc(Oc2ccc(N3C(=O)NC(C)(C)C3=O)cn2)c2c1OCC21CC1 [Example 10, 5,5-dimethyl-3-[6-(7-methylspiro[2H-benzofuran-3,1′-cyclopropane]-4-yl)oxy-3-pyridyl]imidazolidine-2,4-dione] showed a Tauact mean [1, 2] of 17.3 ms.

CC[C@H]1NC(=O)N(c2ccc(Oc3ccc(C#N)cc3C3CC3)nc2)C1=O [RE5, 3-cyclopropyl-4-({5-[(4R)-4-ethyl-2,5-dioxo-1-imidazolidinyl]-2-pyridinyl}oxy)benzonitrile, reference compound] was tested, and the Tauact mean [1, 3] was 13.0 ms.

In the case of CC[C@H]1NC(=O)N(c2ccc(Oc3ccc(C#N)cc3C(C)(C)C)nc2)C1=O [RE3, 3-(1,1-dimethylethyl)-4-({5-[(4R)-4-ethyl-2,5-dioxo-1-imidazolidinyl]-2-pyridinyl}oxy)benzonitrile, reference compound], the Tauact mean ([1]; compound 0.2 μM (concentration giving ~0.3 nA current at end of pulse)) is reported as 23.0 ms.

Work on CC[C@@]1(C)NC(=O)N(c2ccc(Oc3ccc(C)c(OC)c3)nc2)C1=O [RE2, (5R)-5-ethyl-5-methyl-3-(6-{[4-methyl-3-(methyloxy)phenyl]oxy}-3-pyridinyl)-2,4-imidazolidinedione, reference compound] yielded a Tauact mean ([1]; compound 12.5 μM (concentration giving ~0.3 nA current at end of pulse)) of 7.3 ms.

Molecule CC[C@H]1NC(=O)N(c2cnc(Oc3ccc(C)c4c3C(C)(C)CO4)nc2)C1=O [Example 8, (5R)-5-ethyl-3-{2-[(3,3,7-trimethyl-2,3-dihydro-1-benzofuran-4-yl)oxy]-5-pyrimidinyl}-2,4-imidazolidinedione] has a Tauact mean [1, 2] of 25.0 ms.

For CC[C@H]1NC(=O)N(c2ccc(Oc3ccc(C#N)c(OC(F)(F)F)c3)nc2)C1=O [RE7, 4-({5-[(4R)-4-ethyl-2,5-dioxo-1-imidazolidinyl]-2-pyridinyl}oxy)-2-[(trifluoromethyl)oxy]benzonitrile, reference compound], the Tauact mean [1, 3] was 10.4 ms.

CC[C@@]1(C)NC(=O)N(c2cnc(Oc3ccc(C)c4c3C3(CC3)CO4)nc2)C1=O [Example 1, (5R)-5-ethyl-5-methyl-3-[2-(7-methylspiro[2H-benzofuran-3,1′-cyclopropane]-4-yl)oxypyrimidin-5-yl]imidazolidine-2,4-dione] showed a Tauact mean [1, 2] of 21.3 ms.

CC[C@H]1NC(=O)N(c2ccc(Oc3ccc(C)c4c3C(C)(C)CO4)nc2)C1=O [Example 7, (5R)-5-ethyl-3-{6-[(3,3,7-trimethyl-2,3-dihydro-1-benzofuran-4-yl)oxy]-3-pyridinyl}-2,4-imidazolidinedione] showed a Tauact mean [1, 4] of 28.0 ms.

In the case of CC[C@H]1NC(=O)N(c2ccc(Oc3ccc(C#N)c(OC(C)C)c3)nc2)C1=O [RE8, 4-({5-[(4R)-4-ethyl-2,5-dioxo-1-imidazolidinyl]-2-pyridinyl}oxy)-2-[(1-methylethyl)oxy]benzonitrile, reference compound], the Tauact mean [1, 3] is reported as 9.7 ms.

In the case of CC[C@H]1NC(=O)N(c2ccc(Oc3ccc(C)c4c3C3(CC3)CO4)nc2)C1=O [Example 6, (5R)-5-ethyl-3-[6-(7-methylspiro[2H-benzofuran-3,1′-cyclopropane]-4-yl)oxy-3-pyridyl]imidazolidine-2,4-dione], the Tauact mean [1, 4] is reported as 34.8 ms.

For CC[C@H]1NC(=O)N(c2ccc(Oc3ccc(C)c(OC)c3)nc2)C1=O [RE1, (5R)-5-ethyl-3-(6-{[4-methyl-3-(methyloxy)phenyl]oxy}-3-pyridinyl)-2,4-imidazolidinedione, reference compound], the Tauact mean ([1]; compound 6.25 μM (concentration giving ~0.3 nA current at end of pulse)) was 9.9 ms.

CC[C@@]1(C)NC(=O)N(c2ccc(Oc3ccc(C)c4c3C3(CC3)CO4)nc2)C1=O [Example 9, (5R)-5-ethyl-5-methyl-3-[6-(7-methylspiro[2H-benzofuran-3,1′-cyclopropane]-4-yl)oxy-3-pyridyl]imidazolidine-2,4-dione] was tested, and the Tauact mean [1, 5] was 24.0 ms.

Molecule CC[C@@]1(C)NC(=O)N(c2cnc(Oc3ccc(C)c4c3OC(F)(F)O4)nc2)C1=O [Example 3, (5R)-3-{2-[(2,2-difluoro-7-methyl-1,3-benzodioxol-4-yl)oxy]-5-pyrimidinyl}-5-ethyl-5-methyl-2,4-imidazolidinedione] has a Tauact mean ([1]; compound 25.0 μM (concentration giving ~0.3 nA current at end of pulse)) of 8.9 ms.

In the case of CN1CCN(C2=Nc3cc(Cl)ccc3Nc3ccccc32)CC1 [Clozapine, reference compound], the “Locomotor activity (beam crosses)” value (Male CD-1 mice; AMPH 2 mg/kg i.p. + clozapine i.p. 30 min before (positive control), p<0.001 vs amphetamine alone) is reported as 1546 ± 420 beam crosses.

Molecule CC[C@H]1NC(=O)N(c2ccc(Oc3ccc(C#N)c(C(C)C)c3)nc2)C1=O [RE4, 4-({5-[(4R)-4-ethyl-2,5-dioxo-1-imidazolidinyl]-2-pyridinyl}oxy)-2-(1-methylethyl)benzonitrile, reference compound] has a Tauact mean [1, 5] of 9.2 ms.

CC[C@@]1(C)NC(=O)N(c2cnc(Oc3ccc(C)c4c3C(C)(C)CO4)nc2)C1=O [Example 2, (5R)-5-ethyl-5-methyl-3-{2-[(3,3,7-trimethyl-2,3-dihydro-1-benzofuran-4-yl)oxy]-5-pyrimidinyl}-2,4-imidazolidinedione] was tested, and the Tauact mean [1, 2] was 14.8 ms.

With CC[C@H]1NC(=O)N(c2cnc(Oc3ccc(C)c4c3C3(CC3)CO4)nc2)C1=O [Example 5, (5R)-5-ethyl-3-[2-(7-methylspiro[2H-benzofuran-3,1′-cyclopropane]-4-yl)oxypyrimidin-5-yl]imidazolidine-2,4-dione] the Tauact mean [1, 5] was 31.5 ms.
